Data as given in patent US10782295B2, “Cysteine-reactive ligand discovery in proteomes” (THE SCRIPPS RESEARCH INSTITUTE, priority 2013, dated 2020).

Experiments:
WT-ZAK = molecular target: T1, WT-ZAK (Homo sapiens, UniProt Q9NYL2); assay: ZAK in vitro kinase activity assay (MBP substrate); format: biochemical; conditions: 10 or 100 μM HNE; immunoprecipitated enzyme
T1 construct: Full-length cDNA encoding human ZAK-13 (BC001401); expressed in transfected cells
From the text: (§1) The gel signals for IA-labeling of WT-ZAK were blocked by pretreatment with HNE over a concentration range that closely matched the HNE-sensitivity profile observed for C22 in competitive isoTOP-ABPP experiments (FIG. 4b, compare to FIG. 3a). […] Considering further that C22 is predicted to reside adjacent to the ATP-binding loop of ZAK, we postulated that the HNE-induced loss of kinase activity might be due to blockade of ATP-binding.
(§2) The kinase activity assay protocol was adapted from Yu et al^5. Kinase assay buffers, Myeilin Basic Protein (MBP) substrate, and ATP stock solution were purchased from SignalChem. Radio-labeled [^33P]-ATP was purchased from PerkinElmer. 10 mg of soluble lysate of HEK-293T cells transfected with each of wild-type, C22A and K45M of ZAK were immunoprecipitated and then eluted with 2×300 μL FLAG-peptide buffer. […] The spotted P81 strips were air dried and then washed with 10 mL of 1% phosphoric acid for 3×10 min ZAK activity was measured by counting the radioactivity on the P81 paper in the presence of scintillation fluid in a scintillation counter after subtracting the value obtained from the corresponding no substrate control, and was normalized to that of ZAK-WT without HNE treatment. […]

C22A-ZAK = molecular target: T2, C22A-ZAK (Homo sapiens, UniProt Q9NYL2, C22A); assay: ZAK in vitro kinase activity assay (MBP substrate); format: biochemical; conditions: 10 or 100 μM HNE; immunoprecipitated enzyme
T2 construct: Full-length cDNA encoding human ZAK-13 (BC001401); expressed in transfected cells
From the text: as §1, §2

AKT1/2/3 = assay: competitive isoTOP-ABPP, concentration-dependent HNE; format: binding, human; conditions: MDA-MB-231 proteome, read-out: IC50 for inhibition of cysteine (C311) in AKT1/2/3
Protocol: The MDA-MB-231 cell proteome was treated with varying concentrations of HNE (5, 10, 50, 100 and 500 μM) for 60 min and then the IA-labeling profile of each reaction was quantitatively compared to a DMSO-control sample by isoTOP-ABPP.
By combining the R values at all 5 HNE concentrations, we could extrapolate IC50 values for […] of IA probe-labeling for ˜700 of the 1100 cysteines (FIG. 3a).
HNE was purchased from EMD biosciences, 15d-PGJ2 was purchased from Cayman Chemicals and 2-HD was purchased from Santa Cruz Biotechnology. Proteome samples were diluted to a 4 mg protein/mL solution in PBS. […]
IA-probe labeled peptides were identified by SEQUEST2 and DTASelect3, and the quantification of heavy/light ratios (isoTOP-ABPP ratios, R) was performed by an in-house software (CIMAGE) as previously described. The software was advanced to be able to detect and quantify cases where near complete […] blockade of IA-probe labeling was achieved (e.g., very small or no light peak) and assign an empirical ratio cut-off of 15 to each of such cases. […] In the case of probe-modified peptides that were sequenced in one, but not the other runs, a featured algorithm of CIMAGE was utilized to identify the corresponding peak pairs in the runs without the SEQUEST identification and obtain quantification as previously described. […]

CCCCCC(O)/C=C/C=O (stereo not drawn) [4-HNE, 4-Hydroxynonenal]
ZAK catalytic activity, WT-ZAK (WT-ZAK): inhibited | ZAK catalytic activity, C22A-ZAK residual activity (C22A-ZAK): insensitive | IC50 (AKT1/2/3): 60 µM
